According to patent publication US20240366756A1, “COMBINATIONS AND USES THEREOF” (Incyte Corporation, priority 2011, published 2024):
Marks after values point to notes of the source that are not given here.

Columns and labels:
[1] = system: RAMOS human Burkitt's lymphoma cells; assay: Human Non-Hodgkin RAMOS tumor in SCID mice, survival model; type: in vivo; conditions: for Median Survival (Days Post-Inoculation): treatment related deaths excluded; for Median % Increase in Lifespan (ILS): vs. vehicle control/Ref_mAb_33; for Survival, pairwise comparison (Holm-Sidak) vs. Group 3: Group 3 = Bendamustine (16 mg/kg), listed as Bendamustine = 13 mg/kg
Experimental: Cyclophosphamide (Baxter, Lot. No. 1A548C); Vehicle Control: 0.9% sodium chloride, 25 mg/ml mannitol, pH 6.5-6.8 (adjusted with 0.01 M NaOH); SCID Mice (University of Adelaide, Waite Campus, Urrbaraie, SA, Australia, Strain C.B.-17-Igh-1^b-Prkdc^scid); RAMOS human Burkitt's lymphoma cells (ATCC number CRL-1596); Ref_mAb_33_IgG_Xen (10 mg/mL in PBS, referred to as Ref_mAb_33); Bendamustine (Mundipharma, Lot No. 83889).
SCID mice were pre-treated with Cyclophosphamide (75 mg/kg, i.p., twice daily) for two days prior to RAMOS cell inoculation (Day −2 and −1). On the day of inoculation (Day 0), the mice were separated into seven groups of ten mice each, and inoculated with 1×10^6 RAMOS cells each intravenously into the tail vein. The planned dosing regimen for each group is shown in Table 5 and commenced on Day 3. The study duration was 60 days.
From the raw data shown in Table 6, both the median survival in days and median increase in lifespan were calculated. All treatment related deaths were excluded in the calculations.
Median % Increased Lifespan (ILS) is calculated as follows: […]
The classification of the MOR000208/Bendamustine combination therapy (combo) effect was evaluated by comparing the ILS of the combination with the added ILS of the respective monotherapies:
Synergy/Potentiation*: ILSCombo>ILSMOR00208 3 mg/kg+ILSBendamustine. Synergistic effects are classified as potentiation if at least one of the monotherapies has no effect. Additivity: ILSCombo=ILSMOR00208 3 mg/kg+ILSBendamustine. Antagonism: ILSCombo<ILSMOR00208 3 mg/kg+ILSBendamustine.
In addition to an analysis of the data for purposes of identifying synergy, the following statistical analysis was also completed. Statistical analyses were carried out using the median values. Any animal that died unexpectedly or was culled prior to Day 17 of the study in the Test Article treatment groups was excluded from survival analysis calculation. The death/culling of these animals was attributed to compound toxicity rather than disease progression as they occurred well in advance of the first deaths in the Vehicle Control animals. A survival curve was created using the product limit of Kaplan and Meier, and survival curves compared using the log-rank (Mantel-Cox) test. Where significant differences were found, All Pairwise Multiple Comparison (Holm-Sidak Test) was performed. Comparison was done between all groups. In addition the comparison of the following groups were summarised in separate figures for each test article: Vehicle Control/Ref_mAb (group 10) against Bendamustine groups (Groups 2, 3 and 4) and Vehicle Control/Ref_mAb (group 10) against Combination groups (Groups 5 and 6) or respective MOR00208 monotherapy group (group 1). A p value of less than 0.05 was considered significant.

MEC-1 cells = assay: Cytotoxicity/ADCC cell killing of MEC-1 cells with PBMCs (FACS, propidium iodide); type: cell-based, human; conditions: for normalized specific killing: combination set to 1, Bendamustine 100 μg/ml, MOR00208 6.6 pM; for % dead cells: MOR00208 6.6 pm, BEN 100 μg/ml (48 h pre-incubation), E:T 30:1, 4 h, control RefMab33
From the text: MEC-1 cells: chronic B-cell leukemia cell line DSMZ #ACC497; Cell Medium: Iscove's Modified Dulbecco's Medium (IMDM) with GlutaMAX™, Invitrogen, Cat No.: 31980-048, 20% FCS; PBMCs: RPMI1640, with stabile Glutamine, PAN Biotech GmbH, Cat No.: P04-13500 supplemented with 10% FCS; Biocoll: Biochrome AG CAT No.: L6115 LOT No.: 1050T; Bendamustine: Mundipharma LOT No.: 88018; FCS: PAN CAT No.: 3302-P282403 LOT No.: P282403; and RefmAb33 (anti-RSV) with same Fc region as MOR00208.
The cytotoxicity of MOR00208 and bendamustine alone and in combination was tested in MEC-1 cells. BEN is an alkylating agent, therefore, functions via direct cytoxicity in MEC-1 cells. MOR00208 targets CD19 and additionally functions via ADCC in killing MEC-1 cells. For the following groups MEC-1 cell killing was measured: BEN at 100 μg/ml; MOR00208 at 6.6 pm and the combination of MOR00208 at 6.6 pm and BEN at 100 μg/ml. […] The following were used as controls: RefmAb33, or PBMCs alone. In both the BEN group and MOR00208+BEN combination group, MEC-1 cells were pre-incubated with BEN 48 hours prior to the ADCC assay measurements. The MEC-1 cells were stained using 1 mg/ml Calcein AM then counted and adjusted to 2×10^5/ml. The PBMCs were counted and adjusted to 6×10^6/ml. The cell killing assays were done as follows: using 96 well plates, a 100 μl cell suspension of MEC-1 cells was added per well, then 100 μl cell suspension of PBMCs was added to each well resulting in an E:T ratio of 30:1. The antibodies were diluted to 1 μg/ml in medium. Cells were centrifuged and re-suspended. To the target:effector cell-pellet, 100 μl antibody solution or according control solution was added. The mixture was incubated for 4 h in CO2-incubator at 37° C. The cell killing measurements were taken as follows: the incubated cell solution (˜100 μl) was transferred into FACS tubes and 200 μl FACS buffer (DPBS+3% FCS) and 0.5 μl PI stock solution was added to each tube. FACS-Calibur was used. Dead MEC-1 cells were stained with propidium iodide.
The values represent % dead cells. Each experiment represents PBMCs from different donors. The controls used for each experiment was RefMab33.
The values shown in Table 2 are calculated as follows: 1) from the raw data (% dead cells) shown in Table 1, the background (controls) were subtracted, resulting in the specific killing for each treatment group; then 2) the specific killing values were normalized by setting the combination of MOR00208+BEN to 1. The averages of Table 2 are depicted in FIG. 5.
[…] (CI) calculations were completed in order to determine synergy of the combination of the exemplified anti-CD19 antibody and bendamustine as compared to MOR00208 and BEN alone. Such calculations are described in Ting-Chao Chou, Theoretical Basis, Experimental Design, and Computerized Simulation of Synergism and Antagonism in Drug Combination Studies, Pharmacol Rev 58:621-681 (2006), which is incorporated by reference in its entirety and Chou T C, Talalay P, Quantitative analysis of dose-effect relationships: the combined effects of multiple drugs or enzyme inhibitors. Adv Enzyme Regul 22:27-55 (1984), which is incorporated by reference in its entirety. The methods of Chou-Talalay are carried out using the CI-isobol method.
The median-effect equation models of the effect of an inhibitor (such as a drug) as Fa/Fu=(D/D50)^m, where D is the dose, Fa and Fu is the fraction of the system affected and unaffected by the dose D (Fa+Fu=1); D50 is the dose producing the median effect (e.g. IC50, ED50, LD50). The constant m determines the shape of the dose-effect curve. We used Excel Fit software to carry out a linear regression calculation to estimate the parameters m and D50.
The effects of the combination on MEC-1 cells is measured % cell death as described above.

Human CD19 = molecular target: T1, Human CD19 (human, UniProt P15391 20-556); assay: cell-based or functional assay
T1 sequence: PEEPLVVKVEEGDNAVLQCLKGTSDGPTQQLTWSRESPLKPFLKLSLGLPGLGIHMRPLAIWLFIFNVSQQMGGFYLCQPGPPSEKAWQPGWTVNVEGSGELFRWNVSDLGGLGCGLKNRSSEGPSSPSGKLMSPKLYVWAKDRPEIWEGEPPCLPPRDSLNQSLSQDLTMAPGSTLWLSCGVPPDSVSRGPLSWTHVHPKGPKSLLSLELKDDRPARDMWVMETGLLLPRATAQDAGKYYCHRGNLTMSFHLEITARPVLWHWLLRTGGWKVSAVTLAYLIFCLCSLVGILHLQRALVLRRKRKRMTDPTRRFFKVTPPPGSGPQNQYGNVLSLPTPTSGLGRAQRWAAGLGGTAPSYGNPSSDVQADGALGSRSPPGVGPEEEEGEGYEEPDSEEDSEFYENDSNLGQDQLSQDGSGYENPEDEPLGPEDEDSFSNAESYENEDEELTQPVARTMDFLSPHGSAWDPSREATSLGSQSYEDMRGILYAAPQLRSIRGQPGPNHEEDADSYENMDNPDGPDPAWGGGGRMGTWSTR

In the case of Cn1c(CCCC(=O)O)nc2cc(N(CCCl)CCCl)ccc21 [Bendamustine, reference compound], the “Median Survival (Days Post-Inoculation)” value ([1]; 13 mg/kg) is reported as 24^b Days Post-Inoculation, the “Median % Increase in Lifespan (ILS)” value ([1]; 13 mg/kg) is reported as −5.88% and the “Median Survival (Days Post-Inoculation)” value ([1]; 16 mg/kg) is reported as 24^c Days Post-Inoculation. For the same molecule, the “Median % Increase in Lifespan (ILS)” value ([1]; 16 mg/kg) was −5.88%, the “Survival, pairwise comparison (Holm-Sidak) vs. Group 3” value ([1]; Table 8) was “No (No: There is no statistically significant difference (p ≥ 0.05).)” and the “Survival, pairwise comparison (Holm-Sidak) vs. Group 3” value ([1]; untitled repeat of Table 8) was “No (No: There is no statistically significant difference (p ≥ 0.05).)”. The normalized specific killing (MEC-1 cells; Average of experiments 1-3) was 0.8, the “% dead cells” value (MEC-1 cells; Experiment 1 (PBMC donor)) was 83.6% and the normalized specific killing (MEC-1 cells; Experiment 1, background subtracted) was 0.85. For the same molecule, the “% dead cells” value (MEC-1 cells; Experiment 2 (PBMC donor)) was 53.3%, the normalized specific killing (MEC-1 cells; Experiment 2, background subtracted) was 0.75 and the “% dead cells” value (MEC-1 cells; Experiment 3 (PBMC donor)) was 75.6%. For the same molecule, the normalized specific killing (MEC-1 cells; Experiment 3, background subtracted) was 0.85, the EC50 (MEC-1 cells; Homo sapiens, MEC1, read-out: EC50 (MEC-1 cell killing)) was about 100 µg/mL and the “Bonferroni's Multiple Comparison Test Mean Diff.” value (MEC-1 cells; normalized specific killing, monotherapy vs. BEN + MOR00208 combination) was −0.1834.

B1: MOR00208 (antibody, human IgG1, kappa, V domains shown)
VH: EVQLVESGGGLVKPGGSLKLSCAASGYTFTSYVMHWVRQAPGKGLEWIGYINPYNDGTKYNEKFQGRVTISSDKSISTAYMELSSLRSEDTAMYYCARGTYYYGTRVFDYWGQGTLVTVSS
VL: DIVMTQSPATLSLSPGERATLSCRSSKSLQNVNGNTYLYWFQQKPGQSPQLLIYRMSNLNSGVPDRFSGSGSGTEFTLTISSLEPEDFAVYYCMQHLEYPITFGAGTKLEIKR
In the case of B1, the “EC50 of MEC-1 cell killing (ADCC with human PBMCs)” value (Human CD19) is reported as about 6.6 pM.
